pKi: −log10 of the molar value.
Columns and labels:
human α7 nAChR = human α7 nAChR (Homo sapiens, UniProt P36544); settings: reference compound in the above described human α7 nAChR binding assay provided by Cerep
[1] = biological target: recombinantly expressed human α7-nAChR (Homo sapiens, UniProt P36544); settings: literature value, [125I] α-BTX radioligand, read-out: Ki (lit); cited from earlier work
recombinantly expressed human α7-nAChR, sequence (P36544 23-502): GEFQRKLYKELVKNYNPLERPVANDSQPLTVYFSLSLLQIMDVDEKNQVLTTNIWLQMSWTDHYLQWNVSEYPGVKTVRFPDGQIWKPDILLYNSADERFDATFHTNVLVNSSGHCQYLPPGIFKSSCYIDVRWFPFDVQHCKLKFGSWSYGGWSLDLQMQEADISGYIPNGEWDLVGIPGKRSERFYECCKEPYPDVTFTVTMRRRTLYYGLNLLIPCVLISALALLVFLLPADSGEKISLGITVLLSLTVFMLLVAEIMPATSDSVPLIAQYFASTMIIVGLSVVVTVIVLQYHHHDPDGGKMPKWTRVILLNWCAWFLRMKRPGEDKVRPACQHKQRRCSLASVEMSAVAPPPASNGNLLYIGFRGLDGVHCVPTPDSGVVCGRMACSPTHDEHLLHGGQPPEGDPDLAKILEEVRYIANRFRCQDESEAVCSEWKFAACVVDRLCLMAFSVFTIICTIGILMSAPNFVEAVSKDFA

human α7 nAChR, sequence (P36544 23-502): as above

SMILES: Cc1ccc(-c2ccc(OC3CN4CCC3CC4)cn2)cc1 (centres unmarked) [AQW051]
- pKi (human α7 nAChR): 6.59
- pKi [1]: 7.55
